Key:
[1] = molecular target: T1, AtGA2ox3 (Arabidopsis thaliana, UniProt O64692); assay: Incubation of recombinant GA 2-oxidase AtGA2ox3 (E. coli lysate) with 14C-labelled GA substrates; type: biochemical; conditions: for 2β-Hydroxy GA product / GA-catabolite Product: E. coli cell lysate, 14C-labelled GA substrate and cofactors, 2.5 h, HPLC-radiomonitoring
T1 construct: made in house; host or cells: E. coli (crude cell lysate)
T1 sequence (O64692 1-335): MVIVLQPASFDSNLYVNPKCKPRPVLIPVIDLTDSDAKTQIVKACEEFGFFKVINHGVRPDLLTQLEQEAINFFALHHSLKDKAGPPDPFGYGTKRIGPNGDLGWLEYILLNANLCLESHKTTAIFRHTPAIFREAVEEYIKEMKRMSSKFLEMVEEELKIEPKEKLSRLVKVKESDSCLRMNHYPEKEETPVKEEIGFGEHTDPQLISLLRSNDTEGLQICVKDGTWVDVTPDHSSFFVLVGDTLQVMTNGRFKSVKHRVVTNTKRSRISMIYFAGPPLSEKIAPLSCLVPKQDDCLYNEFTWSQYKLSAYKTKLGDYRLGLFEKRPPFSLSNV
Protocol: (§1) GA 2β-hydroxylase activity was determined by measuring the release of 3H2O from a 2β tritiated GA substrate, as described by Smith and MacMillan (Smith, V. A., and MacMillan, J. in J. Plant Growth Regulation 2 251-264 (1984)). The bacterial lysate (90 μl) was incubated with [1,2-^3H2]GA4 or [2,3-^3H2]GA9 (ca. 50000 dpm), in the presence of 4 mM 2-oxoglutarate, 0.5 mM Fe(II)SO4, 4 MM ascorbate, 4 mM DTT, 1 mg/ml catalase, 2 mg/ml BSA, in a final reaction volume of 100 μl. The mixture was incubated at 30° C. for 60 min. The tritiated GAs were removed by the addition of 1 ml of activated charcoal (5% w/v) and subsequent centrifugation for 5 min in a microfuge. Aliquots (0.5 ml) of the supernatant were mixed with 2 ml scintillation fluid and the radioactivity determined by scintillation counting.
(§2) In order to confirm the function of the cDNA expression products, bacterial lysate was incubated with [17-^14C]GAs in the presence of cofactors, as described above. After the incubation, acetic acid (10 μl) and water at pH 3 (140 μl) were added, and the mixture was centrifuged at 3,000 rpm for 10 min. The supernatant was analysed by HPLC with on-line radiomonitoring and products identified by GC-MS, as described previously (MacMillan et al Plant Physiol. 113 1369-1377 (1997)).
(§3) The catalytic properties of the recombinant proteins obtained by expressing the cDNAs from P. coccineus (PcGA2ox1) and A. thaliana (AtGA2ox1, AtGA2ox2 and AtGa2ox3) in E. coli were examined by incubating in the presence of dioxygenase cofactors with a range of ^14C-labelled GA substrates, consisting of the C19-GAs GA1, GA4, GA9 and GA20, and the C20-GAs, GA12 and GA15. This last compound was incubated in both its closed and open lactone forms. […] The mass spectnum of the product from GA15 is consistent with it being 2β-hydroxyGA15, although, because the authentic compound is not available for comparison, the identity of this product is tentative.
(§4) Values are % yield by HPLC-radiomonitoring of products after incubation of cell lysates from E. coli expressing the cDNA with ^14C-labelled GA substrate and cofactors for 2.5 h. Products and substrate were separated by HPLC and products identified by GC-MS. Where combined yield of products <100%, the remainder is unconverted substrate.

[2] = molecular target: T2, PcGA2ox1 (Phaseolus coccineus, UniProt Q9XG83); assay: Incubation of recombinant GA 2-oxidase PcGA2ox1 (E. coli lysate) with 14C-labelled GA substrates; type: biochemical; conditions: for 2β-Hydroxy GA product / GA-catabolite Product: E. coli cell lysate, 14C-labelled GA substrate and cofactors, 2.5 h, HPLC-radiomonitoring; for conversion of C20-GA substrate: 14C-labelled substrate, dioxygenase cofactors
T2 construct: unnamed vector-encoded fusion partner (phagemid expression); made in house; host or cells: E. coli (crude cell lysate)
T2 sequence (Q9XG83 1-331): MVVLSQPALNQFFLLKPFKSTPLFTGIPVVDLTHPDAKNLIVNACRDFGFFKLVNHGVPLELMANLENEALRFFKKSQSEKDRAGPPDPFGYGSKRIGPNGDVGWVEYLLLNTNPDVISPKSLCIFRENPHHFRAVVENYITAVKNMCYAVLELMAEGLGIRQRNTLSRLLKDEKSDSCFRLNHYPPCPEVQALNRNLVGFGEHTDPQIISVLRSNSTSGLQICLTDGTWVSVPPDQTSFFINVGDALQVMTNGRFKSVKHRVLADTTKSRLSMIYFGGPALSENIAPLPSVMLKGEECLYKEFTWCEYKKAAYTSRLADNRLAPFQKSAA
Protocol: as §1, §2, §3, §4

[3] = test system: severely dwarfed 35S-PcGA2ox1 line; assay: Metabolism of C19-GAs in a severely dwarfed 35S-PcGA2ox1 line compared with wild-type plants (HPLC); type: in vivo, Arabidopsis; conditions: severely dwarfed line versus wild-type, on the basis of HPLC
From the text: Metabolism of C19-Gas was compared in a severely dwarfed […] line with that in wild-type plants. […] Therefore, this GA can be used, when required, to reverse the GA-deficiency resulting from overexpressing GA 2-oxidase genes.

[4] = molecular target: T3, AtGA2ox2 (Arabidopsis thaliana, UniProt Q9XFR9); assay: Incubation of recombinant GA 2-oxidase AtGA2ox2 (E. coli lysate) with 14C-labelled GA substrates; type: biochemical; conditions: for 2β-Hydroxy GA product / GA-catabolite Product: E. coli cell lysate, 14C-labelled GA substrate and cofactors, 2.5 h, HPLC-radiomonitoring; for conversion of C20-GA substrate: 14C-labelled substrate, dioxygenase cofactors
T3 construct: made in house; host or cells: E. coli (crude cell lysate)
T3 sequence (Q9XFR9 1-341): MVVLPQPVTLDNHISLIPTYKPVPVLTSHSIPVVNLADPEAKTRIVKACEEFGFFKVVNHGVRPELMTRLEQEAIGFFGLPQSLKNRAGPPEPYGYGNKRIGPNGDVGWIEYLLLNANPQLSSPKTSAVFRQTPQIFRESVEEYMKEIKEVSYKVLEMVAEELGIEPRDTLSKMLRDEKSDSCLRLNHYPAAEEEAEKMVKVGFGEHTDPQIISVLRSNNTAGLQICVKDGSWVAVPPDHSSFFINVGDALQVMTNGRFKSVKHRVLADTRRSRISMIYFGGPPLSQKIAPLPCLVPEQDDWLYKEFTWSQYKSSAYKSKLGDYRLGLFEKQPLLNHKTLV
Protocol: as §1, §2, §3, §4

[5] = molecular target: T4, AtGA2ox1 (Arabidopsis thaliana, UniProt Q8LEA2); assay: Incubation of recombinant GA 2-oxidase AtGA2ox1 (E. coli lysate) with 14C-labelled GA substrates; type: biochemical; conditions: for 2β-Hydroxy GA product: E. coli cell lysate, 14C-labelled GA substrate and cofactors, 2.5 h, HPLC-radiomonitoring
T4 construct: made in house; host or cells: E. coli (crude cell lysate)
T4 sequence (Q8LEA2 1-329): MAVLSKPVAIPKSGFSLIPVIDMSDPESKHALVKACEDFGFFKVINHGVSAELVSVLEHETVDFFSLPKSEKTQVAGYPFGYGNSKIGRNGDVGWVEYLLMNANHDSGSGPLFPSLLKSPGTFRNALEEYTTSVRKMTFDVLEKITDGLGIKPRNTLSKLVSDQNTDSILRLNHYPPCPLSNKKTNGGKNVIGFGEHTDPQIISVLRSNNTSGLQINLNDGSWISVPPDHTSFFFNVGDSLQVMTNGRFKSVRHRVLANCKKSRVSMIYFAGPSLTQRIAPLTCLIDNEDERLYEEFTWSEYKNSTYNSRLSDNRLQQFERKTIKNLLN
Protocol: as §1, §2, §3, §4

[6] = test system: GA 2-oxidases; assay: Substrate test with recombinant enzyme (GA 2-oxidases, enzyme not specified); type: biochemical
[7] = test system: T3 and T24 (AtGA2ox1 and AtGA2ox2) transcript; assay: Northern blot of GA 2-oxidase genes T3 and T24 after GA3 treatment of GA-deficient mutant; type: in vivo, Arabidopsis; conditions: immature flower buds and pedicels of GA-deficient mutant gal-2, after treatment
[8] = test system: 35S-PcGA2ox1 transgenic Arabidopsis lines; assay: GA3 treatment of Arabidopsis transformants overexpressing P. coccineus GA 2-oxidase; type: in vivo
Protocol: The transformation of Arabidopsis plants with P. coccineus GA 2-oxidase cDNA under the control of the CaMV ^35S promoter yielded the following results.
Five Arabidopsis lines that are homozygous for the 35S-PcGA2ox1 transgene were obtained. […] No flower buds were obtained when plants were grown in short photoperiods.

[9] = test system: 2-oxoglutarate-dependent dioxygenases; conditions: pea seeds; cited from earlier work
[10] = 14C-labelled substrate, dioxygenase cofactors

Row | Compound | 2β-Hydroxy GA product [1] [% yield] | 2β-Hydroxy GA product [2] [% yield] | conversion to 2-oxidised products / metabolism by the dwarf line [3] | 2β-Hydroxy GA product [4] [% yield] | 2β-Hydroxy GA product [5] [% yield] | conversion of C20-GA substrate [2] | conversion of C20-GA substrate [4] | further results
1 | C=C1C[C@]23C[C@H]1CC[C@H]2[C@@]12CC[C@H](O)[C@@](C)(C(=O)O1)[C@H]2[C@@H]3C(=O)O [GA4] | 86 | 83 | to a much greater extent than did the wild-type | 77 | 25 |  |  | GA-catabolite Product [1]: 14 % yield; GA-catabolite Product [2]: 17 % yield; GA-catabolite Product [4]: 23 % yield
2 | C=C1C[C@]23C[C@@]1(O)CC[C@H]2[C@@]12CCC[C@@](C)(C(=O)O1)[C@H]2[C@@H]3C(=O)O [GA20] | 25 | 86 | to a much greater extent than did the wild-type | 100 | 50 |  |  | 
3 | C=C1C[C@]23C[C@H]1CC[C@H]2[C@]1(C)CCC[C@@](C)(C(=O)O)[C@H]1[C@@H]3C(=O)O [GA12] |  |  |  |  |  | No conversion | No conversion | conversion of C20-GA substrate [1, 10]: No conversion; conversion of C20-GA substrate [5, 10]: No conversion
4 | C=C1C[C@]23C[C@H]1CC[C@H]2[C@@]12CCC[C@@](C)(C(=O)O1)[C@H]2[C@@H]3C(=O)O [GA9] | 100 | 87 | to a much greater extent than did the wild-type |  | 91 |  |  | activity for 2β-hydroxylation of GA9, dependence on pH ([1]; between pH 6.5 and 8): varied little; GA-catabolite Product [2]: 13 % yield; activity for 2β-hydroxylation of GA9, dependence on pH ([2]; between pH 6.5 and 8): varied little; GA-catabolite Product [4]: 100 % yield; activity for 2β-hydroxylation of GA9, dependence on pH ([4]; between pH 6.5 and 8): varied little; pH at which activity for 2β-hydroxylation of GA9 peaked [5]: 7; activity for 2β-hydroxylation of GA9 ([5]; pH ≦5.9 and ≧8.1): no detectable activity
5 | C=C1C[C@]23C[C@@]1(O)CC[C@H]2[C@@]12C=C[C@H](O)[C@@](C)(C(=O)O1)[C@H]2[C@@H]3C(=O)O [GA3] |  |  | did not metabolise |  |  |  |  | substrate for the GA 2-oxidases [6]: not a substrate; transcript abundance for both T3 and T24 [7]: increased; effect on bolting and flowering of the transgenic lines ([8]; 10 μM GA3, homozygous 35S-PcGA2ox1 lines): enabled them to bolt and produce normal flowers that set viable seed; response of dwarf transformants to treatment ([8]; Arabidopsis transformants, CaMV 35S promoter, concentration not given): increased stem elongation and normal flower development
6 | C=C1C[C@]23C[C@H]1CC[C@H]2[C@@]12CCC[C@@](C)(C(=O)OC1)[C@H]2[C@@H]3C(=O)O [GA15] |  |  |  |  |  | converted to a single product | converted to a single product | 
7 | C=C1C[C@]23C[C@@]1(O)CC[C@H]2[C@@]12CC[C@H](O)[C@@](C)(C(=O)O1)[C@H]2[C@@H]3C(=O)O [GA1] | 100 | 100 | to a much greater extent than did the wild-type | 100 | 41 |  |  | GA-catabolite Product [1]: Trace
8 | C=C1C[C@]23C[C@H]1CC[C@H]2[C@]1(CO)CCC[C@@](C)(C(=O)O)[C@H]1[C@@H]3C(=O)O [GA15 open lactone, 20-hydroxyGA12] |  |  |  |  |  | no conversion | converted to the same product by AtGAox2, but less efficiently than was the lactone form | 
9 | prohexadione-calcium |  |  |  |  |  |  |  | conversion of GA29 to GA29-catabolite [9]: inhibited

From patent publication US7262340B2, “Gibberellin 2-oxidase” (Rothamsted Research Limited, priority 1998, dated 2007)
